# According to patent US6800659B2, “Compounds for modulating cell proliferation” (HSC Research and Development Limited Partnership, priority 2000, dated 2004):
# Columns and labels:
# normal bone marrow cells = assay: CFU-GEMM assay: normal bone marrow differentiation in culture; type: cell-based
# Experimental: (§1) The CFU-GEMM assay was performed according to Fauser and Messner (1978, Blood, 52(6) 143-8) and Messner and Fausser (1980, Blut, 41(5) 327-33) with some variations. In brief, heparinized bone marrow cells were layered over Percoll (1.077 gm/ml) (Pharmacia Fine Chemical, Piscataway N.J.) and centrifuged at 400 g at 4° C. for 10 minutes to remove neutrophils and RBCs. The fractionated BM cells at 2×10^5 cells/ml were cultured in IMDM (OCl, Toronto) containing 0.9% (vol/vol) methylcellulose supplemented with 30% FCS (Cansera Rexdale, ON.) or normal human plasma, a cocktail of cytokines containing G-CSF (10 ng/ml, Amgen), IL-3 (40 U/ml, Immunex), MGF (50 ng/ml, Immunex), Erythropoietin (2 u/ml, Epprex) or TPO (10 ng/ml, Amgen), 5×10^−5M β-2-mercaptoethanol and the specified concentration of CR4. The culture mixture was plated in 1 ml volumes into 35 mm petri dishes and incubated at 37° C., 5% CO2 in a humidified atmosphere. All cultures were evaluated at 14 days for the number of BFU-E colonies (defined as aggregates of more than 500 hemoglobinized cells or, 3 or more erythroid subcolonies), OFU-GM colonies (defined as granulocyte or monocyte-macrophage cells or both), CFU-Meg colonies (comprising 4 or more megakaryocytes) and CFU-GEMM colonies (a mixed population comprising of all elements).
# as §1, with “1243-8)” for “143-8)”, “concentrations” for “concentration”, “CR19.” for “CR4.”, “hemaglobinized” for “hemoglobinized”, “subcolonies) and CFU-C” for “subcolonies), OFU-GM”, “both).” for “both), CFU-Meg colonies (comprising 4 or more megakaryocytes) and CFU-GEMM colonies (a mixed population comprising of all elements).”
# as §1, with “1243-8)” for “143-8)”, “variations (British Journal of Haematology, 1992, 80, p40-48).” for “variations.”, “test compound.” for “CR4.”, “CO2,” for “CO2”, “subcolonies) and CFU-C” for “subcolonies), OFU-GM”, “both).” for “both), CFU-Meg colonies (comprising 4 or more megakaryocytes) and CFU-GEMM colonies (a mixed population comprising of all elements).”
# [1] = test system: acute lymphoblastic leukemia, Philadelphia positive ALL, acute myeloid leukemia, myeloma and B-lineage lymphoma; assay: Growth of cancer cells in culture, summary over cell types; type: cell-based
# [2] = Retention in blood after I.V. injection; type: in vivo; settings: 30 minutes after I.V. injection
# [3] = low nanomolar doses, long term exposure
structure (smiles),measurement,setting,value
"N#C/C(=C\C=C\c1ccc(O)c(O)c1)C(=O)NCc1ccccc1 [CR4, (E,E)-2-(benzylaminocarbonyl)-3-(3,4-dihydroxystyryl)acrylonitrile]",CFU-GM colony numbers,"normal bone marrow cells; 10 μM, 14 days (FIG. 1)",significantly stimulated
same,inhibition of BFU-E colony formation,"normal bone marrow cells; 10 μM, 14 days (FIG. 1)",some inhibition
same,effect upon normal cell survival,normal bone marrow cells; at concentrations equivalent to those inhibiting AML-3 cells: 300-600 nM,no effect
same,effect upon normal cells,normal bone marrow cells; at concentrations equivalent to those inhibiting HuNS1 cells: high nanomolar to low micromolar (2.5 μM),no effect
same,effect upon normal cells,normal bone marrow cells; at concentrations equivalent to those inhibiting Ly-MN cells: nanomolar doses to 2.5 μM,no effect
same,effect upon normal cells,normal bone marrow cells; at concentrations equivalent to those inhibiting OCl-LY2 cells: high nanomolar to low micromolar (2.5 μM),no effect
same,effect upon normal cells,normal bone marrow cells; at concentrations equivalent to those inhibiting Ph+ ALL cells: low nanomolar doses (35-100),no effect
same,effect upon normal cells,normal bone marrow cells; at concentrations equivalent to those inhibiting Z119 cells: low nanomolar doses,no effect
same,toxicity upon normal bone marrow,"normal bone marrow cells; doses up to 5 μM, colonies at 14 days (FIG. 1)",negligible toxicity
same,normal cell growth and differentiation,normal bone marrow cells; [3],unaffected
same,toxicity to normal cells incubated with compound,normal bone marrow cells; until concentrations of 10-20 μM or greater were achieved,minimal toxicity
same,effectiveness against a variety of cancer cells,[1]; concentrations ranging from 50 nM to 5 μM,highly effective
same,"effectiveness against a variety of cell types (Acute Lymphoblastic Leukemia, Philadelphia positive Leukemia, Acute Myeloid Leukemia)",[1]; in culture,highly effective
same,toxicity to cancer cells,[1]; [3],highly toxic
same,retention: presence in the blood,[2],still being detectable
